{
  "source": "ChEMBL document CHEMBL1145513",
  "about": "“S-adenosylmethionine-dependent protein methylation in mammalian cytosol via tyrphostin modification by catechol-O-methyltransferase” (J Biol Chem, 2007)",
  "note": "Calls of active or inactive are those of the source. The calls are words filed in the database; no cut-off is given here.",
  "data": [
    {"species_on_record": "Sus scrofa", "assay": "Activity of pig recombinant catechol-O-methyltransferase assessed per unit enzyme", "units": {"Activity": "pmol/min"}, "values": [
      {"smiles": "N#CC(C#N)=C(N)/C(C#N)=C/c1cc(O)c(O)c(O)c1", "Activity": 1.79},
      {"smiles": "N#CC(C#N)=Cc1ccc(O)c(O)c1", "Activity": 2.44},
      {"smiles": "N#C/C(=C\\c1ccc(O)c(O)c1)C(N)=O", "Activity": 2.98},
      {"smiles": "N#C/C(=C\\c1ccc(O)c(O)c1)C(N)=S", "Activity": 2.45},
      {"smiles": "COc1c(C(C)(C)C)cc(C=C(C#N)C#N)cc1C(C)(C)C", "Activity": 0.04},
      {"smiles": "C[C@H](NC(=O)/C(C#N)=C/c1ccc(O)c(O)c1)c1ccccc1", "Activity": 3.08},
      {"smiles": "C[C@@H](NC(=O)/C(C#N)=C/c1ccc(O)c(O)c1)c1ccccc1", "Activity": 3.06},
      {"smiles": "N#CC(C#N)=Cc1cc(O)c(O)c([N+](=O)[O-])c1", "Activity": 0.05},
      {"smiles": "N#C/C(=C\\c1ccc(O)c(O)c1)C(=O)NCc1ccccc1", "Activity": 3.06},
      {"smiles": "N#C/C(=C\\c1ccc(O)c(O)c1)C(=O)O", "Activity": 3.67},
      {"smiles": "N#C/C(=C\\c1ccc(O)c(O)c1)C(=O)NCCCc1ccccc1", "Activity": 3.11},
      {"smiles": "N#CC(C#N)=Cc1cc(O)c(O)c(O)c1", "Activity": 1.65},
      {"smiles": "N#CC(C#N)=Cc1ccc(O)cc1", "Activity": 0.05},
      {"smiles": "N#C/C(=C\\c1ccc(O)c(O)c1)C(=O)NCCCCc1ccccc1", "Activity": 2.84}
    ]},
    {"species_on_record": "Sus scrofa", "assay": "Inhibition of pig recombinant catechol-O-methyltransferase at 100 uM", "values": [
      {"smiles": "N#CC(C#N)=Cc1cc(O)c(O)c([N+](=O)[O-])c1", "Activity": "Active"}
    ]}
  ]
}
